Source: patent US6171808A, “Mutant luciferases” (priority 1995, dated 2001)

Experiments:
[1] = target: T1, Photinus pyralis luciferase, recombinant wild-type (601a) (Photinus pyralis, UniProt P08659); assay: Km determination with respect to ATP, luminometric luciferase assay; type: biochemical; details: 21° C., tricine pH7.8, 470 μM D-luciferin, 6.25 to 400 μM ATP
T1 construct: made in house; host or cells: E. coli JM109 (pPW601a, derived from pDR540 and the luc gene of pGEM-luc)

[2] = target: T2, Photinus pyralis luciferase variant 601aG1, E270K (270 lysine Km change), SEQ ID No 2 with Xaa = lysine (Photinus pyralis, UniProt P08659, E270K); assay: as above; type: biochemical; details: read-out: Km value with respect to ATP; 21° C., tricine pH7.8, 470 μM D-luciferin, 6.25 to 400 μM ATP
T2 construct: made in house; host or cells: E. coli BL21 (DE3) (pPW601G1)
T2 sequence (P08659 whole entry E270K): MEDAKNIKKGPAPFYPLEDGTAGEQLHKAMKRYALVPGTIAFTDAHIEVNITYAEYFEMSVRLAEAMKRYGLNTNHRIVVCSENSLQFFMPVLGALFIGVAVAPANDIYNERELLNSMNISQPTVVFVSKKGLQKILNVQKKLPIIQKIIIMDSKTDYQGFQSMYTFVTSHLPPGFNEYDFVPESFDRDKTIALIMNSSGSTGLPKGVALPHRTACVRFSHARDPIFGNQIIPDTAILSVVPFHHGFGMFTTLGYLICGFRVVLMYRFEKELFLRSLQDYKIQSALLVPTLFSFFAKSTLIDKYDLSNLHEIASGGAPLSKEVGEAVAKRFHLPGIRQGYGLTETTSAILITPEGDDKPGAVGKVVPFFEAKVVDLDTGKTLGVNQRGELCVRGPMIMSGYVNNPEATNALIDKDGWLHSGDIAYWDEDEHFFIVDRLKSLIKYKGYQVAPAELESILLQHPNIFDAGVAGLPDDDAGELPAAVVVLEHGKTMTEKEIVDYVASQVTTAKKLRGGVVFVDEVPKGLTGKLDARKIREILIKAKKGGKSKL
Excerpt: The Km mutant was initially generated by hydroxylamine induced mutagenesis of the luc gene within pPW304 to provide plasmid 304 G1 bearing a single base change in the DNA sequence at 811 of SEQ ID No 1 resulting in an amino acid glutamate change to lysine at position 270. A 1.1 kb DNA fragment (BstE II/Stu I) was cloned from pPW304 and used to replace the corresponding fragment in pP601a to form pPW601G1, thus providing a luc gene encoding for luciferase without the four extra amino acids encoded by pPW304 (M not included from M-A-R-I-Q).

[3] = target: T3, Photinus pyralis luciferase double mutant 601aG1K, E270K + E354K, SEQ ID No 4 (Photinus pyralis, UniProt P08659, E270K/E354K); assay: as above; type: biochemical; details: read-out: Km value with respect to ATP; 21° C., tricine pH7.8, 470 μM D-luciferin, 6.25 to 400 μM ATP
T3 construct: made in house; host or cells: E. coli JM109 (pPW601aG1K, pDR540-derived)
T3 sequence (P08659 whole entry E270K/E354K): as the sequence (P08659 whole entry E270K) above, with E354K counted along it

[4] = target: Photinus pyralis luciferase variant 601aK, E354K (thermostable mutant 354 lysine) (Photinus pyralis, UniProt P08659, E354K); details: read-out: Km value with respect to ATP; 21° C., tricine pH7.8, 470 μM D-luciferin, 6.25 to 400 μM ATP
Photinus pyralis luciferase variant 601aK, E354K (thermostable mutant 354 lysine), sequence (P08659 whole entry E354K): as the sequence (P08659 whole entry E270K) above, with K270E, E354K counted along it

T1 sequence (P08659 whole entry): as the sequence (P08659 whole entry E270K) above, with K270E counted along it

For `Nc1ncnc2c1ncn2[C@@H]1O[C@H](COP(=O)(O)OP(=O)(O)OP(=O)(O)O)[C@@H](O)[C@H]1O` [ATP, adenosine triphosphate], the Km [1] was 66.1 µM, the Km [2] was 28.7 µM and the Km [3] was 25.2 µM. For the same molecule, the Km [4] was 61.3 µM.
